Here are results for seven compounds from patent US10214515B2, “Substituted pyrazoles as inhibitors of fibroblast growth factor receptor” (Zhejiang Hisun Pharmaceutical Co., Ltd., priority 2015, dated 2019).

Structures are written as SMILES. Like-named read-outs stand apart in the source and are kept apart here.

The subject of series [1] is small cell lung cancer cells NCI-H1581. Put plainly: Tumor cell proliferation, CCK-8 kit. Particulars: Homo sapiens, 72 hours. In kind it is cell-based. (Tetrazolium dyes change colour on reduction, which living cells bring about.)
The test system of series [2] is human gastric cancer cells KATOIII. Kind of series: Tumor cell proliferation, CCK-8 kit. It is filed as cell-based. Conditions: KATO III, 72 hours.
In series [3] the test system is small cell lung cancer cells DMS114. Put plainly: Tumor cell proliferation, CCK-8 kit. Conditions: Homo sapiens, DMS-114, 72 hours. In kind it is cell-based.
For series [4], the system named is human gastric cancer cells SNU-16. Kind of series: Tumor cell proliferation, CCK-8 kit. In kind it is cell-based. Conditions: SNU-16 cells, 72 hours.
Series [5] can be described thus: Pharmacokinetic tests on rats, intragastric, plasma LC/MS/MS. It is filed as in vivo. Conditions: SD rats; for AUC(0-inf) / half-life / Cmax / MRT: male, rat, plasma, po; for AUC(0-inf): read-out: Curve area AUC0-∞; for half-life: read-out: Half-life period T½ (converted); for Cmax: read-out: Plasma concentration Cmax; for MRT: read-out: Residence time MRT. On the procedure: SD rats were used as the test animals, and the compounds of Examples 12 and 17 were administrated intragastrically to the rats to determine the drug concentration in plasma at different points by LC/MS/MS method. The pharmacokinetic properties of the compounds of the present invention in rats were studied.
The compound of Example 12 (3.5 mg) was weighed, dissolved in 2.2 mL of ethanol, vortexed for 1 minute and sonicated for 1 minute, after that, dissolved in 3.3 mL of PEG400, vortexed for 1 minute and sonicated for 1 minute, and then added with 5.5 mL of deionized water, vortexed for 1 minute. The final concentration of the solution was 0.3 mg/mL, and it was a colorless clear liquid (the pH of the final solution was about 7).
The compound of Example 17 (7.12 mg) was weighed and 7.12 mL of 0.5% sodium carboxymethylcellulose (CMC-Na) (0.5% Tween-20, 0.9% BeOH) was added, vortexed for 3 minutes until a homogeneous suspension was formed;
6 healthy adult SD male rats, after an overnight fast, were administrated intragastrically at the dosage of 3 mg/kg and 5 mg/kg, respectively.
Blood samples were taken from laryngeal vein (0.15 mL), at pre administration and at 15 minutes, 30 minutes, 1 hour, 2 hours, 4 hours, 8 hours, 12 hours, 24 hours, 36 hours and 48 hours post administration, and the samples were stored in heparinized test tubes, and centrifuged for 10 minutes at 5500 r/min. The plasma was stored at −30° C., and the rats were fed 4 hours after administration.
20 μL of sample was taken, 400 μl of acetonitrile solution of IS (5 ng·mL^−1 verapamil and 50 ng·mL^−1 glibenclamide were contained) was added, The mixture was vortexed for 1 minute, and then centrifuged for 8 minutes at 13,000r/min. After that, 70 μL of supernatant was added with 70 μL of water and vortexed for 10 minutes, and an aliquot of 10 μL of the supernatant of the mixture was analyzed in a LC-MS/MS system.
The tested compounds were administrated intragastrically to determine the content of the tested compounds in plasma of rats at different time points by LC-MS/MS method.

In series [6] the test system is human bladder transplanted cell carcinoma cell SW780. Put plainly: cells. Conditions: SW780, 72 h, read-out: IC50(nM)/SW780. The source says:
For the FGFR3 subtype, the human bladder transplanted cell carcinoma cell SW780 (purchased from the Chinese Academy of Sciences, Shanghai Institute of Life Sciences, Cell Resource Center) was used, and cultivated according to the corresponding conditions.
The experimental assay can be briefly described as follows: the tested compound was first dissolved in DMSO to prepare a stock solution, then it was subjected to gradient dilution with corresponding cell culture medium to prepare a test sample. The final concentration of the compound is in the range of 30 μM to 0.01 nM. The tumor cells in logarithmic growth phase were inoculated into 96-well cell culture plates at appropriate densities, after the cells were incubated overnight under the corresponding conditions, the tested compound samples were added and the cells were cultured for 72 hours. After completion of the culture, a suitable volume of CCK-8 test solution was added to each well and the cells were incubated at 37° C. for 1 to 4 hours. […] The percentage inhibition rate of the compound at each concentration point was calculated by comparing with the absorbance values of the control group, and then non-linear regression analysis was carried out using logarithmic concentration of the compounds-inhibition rates in the GraphPad Prism 5 software, to obtain the IC50 values for inhibiting cell proliferation of the compounds.

For a further series, the target named is FGFR3 (Homo sapiens (Human), UniProt P22607). Put plainly: FGFR kinase activity, HTRF KinEASE-TK (TF-FRET). It is filed as biochemical. Conditions: recombinant human FGFR3, ATP at Km. In general terms: TR-FRET usually uses a lanthanide donor and a delayed reading to cut background.
Chain of FGFR3 (P22607 23-806): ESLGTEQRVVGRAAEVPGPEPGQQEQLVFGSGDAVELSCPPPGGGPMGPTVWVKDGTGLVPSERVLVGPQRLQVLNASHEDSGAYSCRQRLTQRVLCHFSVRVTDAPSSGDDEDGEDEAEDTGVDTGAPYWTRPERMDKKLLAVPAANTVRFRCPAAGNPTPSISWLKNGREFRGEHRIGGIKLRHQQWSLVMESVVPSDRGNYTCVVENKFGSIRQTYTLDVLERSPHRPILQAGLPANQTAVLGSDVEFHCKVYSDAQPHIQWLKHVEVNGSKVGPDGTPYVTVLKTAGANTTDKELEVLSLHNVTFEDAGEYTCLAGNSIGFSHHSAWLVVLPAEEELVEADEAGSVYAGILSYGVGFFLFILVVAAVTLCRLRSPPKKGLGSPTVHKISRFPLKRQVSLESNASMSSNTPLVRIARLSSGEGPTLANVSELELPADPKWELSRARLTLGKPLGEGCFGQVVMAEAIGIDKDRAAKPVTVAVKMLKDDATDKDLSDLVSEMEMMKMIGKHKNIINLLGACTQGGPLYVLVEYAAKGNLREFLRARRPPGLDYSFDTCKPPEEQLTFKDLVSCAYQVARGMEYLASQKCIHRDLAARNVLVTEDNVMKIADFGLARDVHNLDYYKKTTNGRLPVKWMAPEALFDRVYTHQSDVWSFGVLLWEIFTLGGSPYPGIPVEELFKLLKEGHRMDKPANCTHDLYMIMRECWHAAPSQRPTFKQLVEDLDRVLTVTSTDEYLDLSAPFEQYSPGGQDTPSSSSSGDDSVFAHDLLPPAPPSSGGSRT
For another series, the target named is FGFR4 (Homo sapiens (Human), UniProt P22455). Particulars: read-out: IC50(nM) FGFR4; recombinant human FGFR4, ATP at Km.
Chain of FGFR4 (P22455 22-802): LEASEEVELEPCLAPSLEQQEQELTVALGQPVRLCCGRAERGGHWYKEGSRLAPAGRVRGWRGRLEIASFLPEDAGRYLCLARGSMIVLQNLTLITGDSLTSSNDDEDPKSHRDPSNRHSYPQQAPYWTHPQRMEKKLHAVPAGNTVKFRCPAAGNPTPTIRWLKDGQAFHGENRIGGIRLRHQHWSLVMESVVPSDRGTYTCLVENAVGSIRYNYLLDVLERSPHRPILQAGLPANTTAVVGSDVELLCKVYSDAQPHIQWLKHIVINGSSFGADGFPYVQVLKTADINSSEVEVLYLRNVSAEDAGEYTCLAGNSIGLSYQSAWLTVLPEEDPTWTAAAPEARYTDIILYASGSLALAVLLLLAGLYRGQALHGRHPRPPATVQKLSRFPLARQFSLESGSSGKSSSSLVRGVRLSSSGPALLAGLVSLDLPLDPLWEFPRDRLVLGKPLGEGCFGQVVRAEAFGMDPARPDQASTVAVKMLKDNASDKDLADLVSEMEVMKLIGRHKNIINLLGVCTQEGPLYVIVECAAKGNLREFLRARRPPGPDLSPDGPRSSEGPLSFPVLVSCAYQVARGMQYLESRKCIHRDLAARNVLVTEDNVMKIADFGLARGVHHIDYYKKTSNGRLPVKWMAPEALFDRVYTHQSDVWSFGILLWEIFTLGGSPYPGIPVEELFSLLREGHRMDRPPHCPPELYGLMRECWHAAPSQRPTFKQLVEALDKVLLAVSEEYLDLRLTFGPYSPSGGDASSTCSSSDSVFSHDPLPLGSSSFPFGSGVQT
Series [7] can be described thus: Pharmacokinetic tests on mice, intragastric, plasma LC/MS/MS. In kind it is in vivo. Particulars: ICR mice, 100 mg/kg. The protocol:
ICR mice were used as the test animals, and the compound of Example 1 was administrated intragastrically to mice to determine the drug concentration in plasma at different points by LC/MS/MS method. The pharmacokinetic properties of the compound of the present invention were studied in mice.
The compound of Example 1 (50.12 mg) was weighed, added with 5.012 mL of 0.5% sodium carboxymethylcellulose (CMC-Na) (0.5% Tween-20, 0.9% BeOH), vortexed for 3 minutes until a homogeneous suspension was formed;
9 healthy adult ICR mice, after an overnight fast, were administrated intragastrically at a dosage of 100 mg/kg, at a volume of […].
Blood samples were taken from orbital vein (0.08 mL) at pre administration and at 15 minutes, 30 minutes, 1 hour, 2 hours, 4 hours, 8 hours, 12 hours, 24 hours post administration. The samples were stored in heparinized test tubes and centrifuged for 10 minutes at 5500r/min, The plasma were stored at −30° C., and the mice were fed after 4 hours of administration.
10 μL of sample was taken, 100 μl of acetonitrile solution of IS (5 ng·mL^−1 verapamil and 50 ng·mL^−1 glibenclamide were contained) was added, the mixture was vortexed for 10 minutes and centrifuged for 18 minutes at 3,700r/min, After that, 40 μL of supernatant was added with 120 μL of water and vortexed for 10 minutes, and an aliquot of 10 μL of the supernatant of the mixture was analyzed in a LC-MS/MS system.
The tested compounds were administrated intragastrically to determine the content of the tested compounds in plasma of mice at different time points by LC-MS/MS method.

Method for FGFR4: This assay used Cisbio's HTRF®KinEASE-TK tyrosine kinase kit (Cat. No. 62TK0PEB), through determining the degree of phosphorylation of the biotinylated polypeptide substrate, the determination was carried out by time-resolved fluorescence energy resonance transfer method (TF-FRET).
For detailed assay, please refer to the kit instructions, the experimental procedure was summarized as follows: the compound of the present invention was first dissolved in DMSO, the solution was subjected to gradient dilution with the buffer solution provided in the kit so that the range of the final concentration of the compound to be tested in the reaction system was 10 μM to 0.1 nM, the final concentration of DMSO was 0.1%. The concentration of the tested adenosine triphosphate (ATP) was the pre-determined Km value corresponding to the ATP of each FGFR subtype. […] Subsequently, an antiphosphorylated tyrosine antibody coupled with a compound containing europium-based element and streptavidin coupled with a modified allophycocyanin XL665 were added to the reaction and the mixture was incubated continuously for 1 hour at room temperature.

With `Nc1c(C(=O)c2cc3cc(F)ccc3[nH]2)cnn1-c1ccc2[nH]c(C3CC3)nc2c1` [Example 11, (5-amino-1-(2-cyclopropyl-1H-benzo[d]imidazol-5-yl)-1H-pyrazol-4-yl)(5-fluoro-1H-indol-2-yl)methanone], the IC50 in series [1] stood at 119 nM; in [2] it was 15 nM.

With `CN1CC=C(c2ccc3cc(C(=O)c4cnn(-c5ccc6[nH]c(C7CC7)nc6c5)c4N)[nH]c3c2)CC1` [Example 14, (5-Amino-1-(2-cyclopropyl-1H-benzo[d]imidazol-5-yl)-1H-pyrazol-4-yl)(6-(1-methyl-1,2,3,6-tetrahydropyrid-4-yl)-1H-indol-2-yl)methanone], the IC50 in [3] worked out at 43 nM; in series [1], 20 nM; in series [2], 4.5 nM; in series [4], 5.6 nM.

For the compound `Nc1c(C(=O)c2cc3ccc(F)cc3[nH]2)cnn1-c1ccc2[nH]c(C3CC3)nc2c1` [Example 12, (5-Amino-1-(2-cyclopropyl-1H-benzo[d]imidazol-5-yl)-1H-pyrazol-4-yl)(6-fluoro-1H-indol-2-yl)methanone], the IC50 in [3] was determined as 150 nM. In series [1], the IC50 stood at 78 nM. In addition, the IC50 in series [2] was determined as 1.1 nM. The compound also returned an IC50 in series [4] of 5 nM. The “pharmacokinetic properties (in words)” value in [5] was “good pharmacokinetic properties”. In series [5] (3 mg/kg), the AUC(0-inf) amounted to 80400 ± 24600 ng·h/mL, the half-life (commonly the time needed for the level to fall by half in the phase considered) was 5.38 ± 0.05 h, the Cmax amounted to 5230 ± 1510 ng/mL and the MRT (usually the average time that molecules of a dose stay in the body) came to 8.18 ± 0.19 h.

`N#Cc1ccc2cc(C(=O)c3cnn(-c4ccc5[nH]c(C6CC6)nc5c4)c3N)[nH]c2c1` [Example 17, 2-(5-Amino-1-(2-cyclopropyl-1H-benzo[d]imidazol-5-yl)-1H-pyrazole-4-carbonyl)-1H-indole-6-carbonitrile]: the IC50 in [3] was 129 nM; in [1] it was 61 nM; in series [2] it was 9.8 nM; in series [6] it was 106 nM. For the same compound, the “pharmacokinetic properties (in words)” value in series [5] is “good pharmacokinetic properties”. In series [5] (5 mg/kg), the AUC(0-inf) amounted to 10300 ± 3490 ng·h/mL. For the same compound, the half-life in series [5] (5 mg/kg) is 6.6 ± 3.2 h. Moreover, the Cmax in series [5] (5 mg/kg) was found to be 1040 ± 271 ng/mL. For the same compound, the MRT in series [5] (5 mg/kg) amounted to 9.4 ± 5.2 h.

For `CCn1cc(-c2ccc3cc(C(=O)c4cnn(-c5ccc6[nH]c(C7CC7)nc6c5)c4N)[nH]c3c2)cn1` [Example 16, (5-Amino-1-(2-cyclopropyl-1H-benzo[d]imidazol-5-yl)-1H-pyrazol-4-yl)(6-(1-ethyl-1H-pyrazol-4-yl)-1H-indol-2-yl)methanone], the IC50 came to 56 nM in series [3], 40 nM in [1], 11 nM in series [2] and 56 nM in [6].

Take `COC(=O)c1nc2cc(-n3ncc(C(=O)c4cc5ccccc5[nH]4)c3N)ccc2[nH]1` [Example 7, Methyl 5-(5-amino-4-(1H-indole-2-carbonyl)-1H-pyrazol-1-yl)-1H-benzo[d]imidazole-2-carboxylate]: the values for the IC50 at FGFR3 and at FGFR4 were above 100 nM and above 10000 nM, respectively.

For `Nc1c(C(=O)c2cc3ccccc3[nH]2)cnn1-c1ccc2[nH]c(C3CC3)nc2c1` [Example 1, (5-amino-1-(2-cyclopropyl-1H-benzo[d]imidazol-5-yl)-1H-pyrazol-4-yl)(1H-indol-2-yl)methanone], the IC50 came out at 89 nM in series [3]; 45 nM in series [1]; 9 nM in series [2]; 4 nM in series [4]; 11 nM in series [6]. Besides, the “F % (oral availability)” value in [7] is 63%. Besides, the “pharmacokinetic properties (in words)” value in [7] is recorded as “good pharmacokinetic properties”. The AUC(0-t) in series [7] (mouse, plasma, po, read-out: Curve area AUC0-t) worked out at 150000 ng·h/mL. In [7] (mouse, plasma, po, read-out: Plasma concentration Cmax), the Cmax was found to be 17400 ng/mL.
